The values below are quoted from earlier work in patent US12605340B2, “Extended release composition of 2-(2-Aminothiazol-4-yl)-N-[4-(2{[(2R)-2-hydroxy-2-phenylethyl] amino} ethyl) phenyl] acetamide” (Zim Laboratories Limited, priority 2020, dated 2026).

Like-named read-outs stand apart in the source and are kept apart here.

Take `Nc1nc(CC(=O)Nc2ccc(CCNC[C@H](O)c3ccccc3)cc2)cs1` [Mirabegron, 2(2-aminothiazol-4-yl)-N-[4-(2-{[(2R)-2-hydroxy2phenylethyl]amino}ethyl)phenyl] acetamide]: the Solubility result is, setting by setting: (in dimethyl sulfoxide) “soluble”; (in methanol) “soluble”; (in water) “practically insoluble”.
